In PubChem BioAssay AID220 (DTP/NCI, 2004):
Where “and” joins values, the source holds several entries; their conditions need not be identical. Equal entries are not always repeated. Records with an inconclusive call do not appear.

Test system: CD8F1 mice, subcutaneous mammary adenocarcinoma, T/C%
Assay: NCI In Vivo Anticancer Drug Screen. Data for tumor model Mammary Adenocarcinoma CD8F1 (subcutaneous) in CD8F1
Settings: higher = larger tumour
Procedure, shortened: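 Antitumor activity is assessed in transplantable-tumor mice by comparing the treated group with a vehicle-treated control group. Survival or tumor size serves as the measure, reported as T divided by C.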

[1] = endpoint: median tumor weight change, dose: 125.0 mg/kg/injection, schedule: Q01DX001 (ip), vehicle: Klucel (hydroxypropylcellulose) (HPC)
[2] = endpoint: median tumor weight (est.), dose: 25.0 mg/kg/injection, schedule: Q07DX005 (ip), vehicle: saline
[3] = endpoint: median tumor weight (est.), dose: 800.0 mg/kg/injection, schedule: Q07DX005 (ip), vehicle: saline
[4] = endpoint: median tumor weight (est.), dose: 6.25 mg/kg/injection, schedule: Q07DX005 (ip), vehicle: saline with Tween-80
[5] = endpoint: median tumor weight (est.), dose: 12.5 mg/kg/injection, schedule: Q07DX005 (ip), vehicle: saline with Tween-80
[6] = endpoint: median tumor weight (est.), dose: 25.0 mg/kg/injection, schedule: Q07DX005 (ip), vehicle: saline with Tween-80

## CCC(/C=C/C1OC(=O)C=CC1C)=C\C(C)C/C=C/C(C)=C/C(C)C(=O)C(C)C(O)C(C)C/C(C)=C/C(=O)O (stereo unspecified)
endpoint: median tumor weight change, dose: 200.0 mg/kg/injection, schedule: Q01DX001 (ip), vehicle: saline + alcohol
  T/C: 56 % of control
endpoint: median tumor weight change, dose: 400.0 mg/kg/injection, schedule: Q01DX001 (ip), vehicle: saline + alcohol
  T/C: 49 % of control
endpoint: median tumor weight change, dose: 800.0 mg/kg/injection, schedule: Q01DX001 (ip), vehicle: saline + alcohol
  T/C: 56 % of control
endpoint: median tumor weight change, dose: 1600.0 mg/kg/injection, schedule: Q01DX001 (ip), vehicle: saline + alcohol
  T/C: 75 % of control
endpoint: median tumor weight change, dose: 3200.0 mg/kg/injection, schedule: Q01DX001 (ip), vehicle: saline + alcohol
  T/C: 61 % of control

## CC1=C(/C=C/C(C)=C/C=C/C(C)=C/C(=O)O)C(C)(C)CCC1
endpoint: median tumor weight (est.), dose: 8.0 mg/kg/injection, schedule: Q07DX005 (ip), vehicle: saline with Tween-80
  T/C: 47 % of control
endpoint: median tumor weight (est.), dose: 16.0 mg/kg/injection, schedule: Q07DX005 (ip), vehicle: saline with Tween-80
  T/C: 71 % of control
endpoint: median tumor weight (est.), dose: 64.0 mg/kg/injection, schedule: Q07DX005 (ip), vehicle: saline with Tween-80
  T/C: 92 % of control and 106 % of control
endpoint: median tumor weight (est.), dose: 256.0 mg/kg/injection, schedule: Q07DX005 (ip), vehicle: saline with Tween-80
  T/C: 49 % of control

## Cn1cnc([N+](=O)[O-])c1SCC(=O)O
endpoint: median tumor weight (est.), dose: 100.0 mg/kg/injection, schedule: Q07DX005 (ip), vehicle: Klucel (hydroxypropylcellulose) (HPC)
  T/C: 100 % of control
endpoint: median tumor weight (est.), dose: 200.0 mg/kg/injection, schedule: Q07DX005 (ip), vehicle: Klucel (hydroxypropylcellulose) (HPC)
  T/C: 107 % of control
endpoint: median tumor weight (est.), dose: 400.0 mg/kg/injection, schedule: Q07DX005 (ip), vehicle: Klucel (hydroxypropylcellulose) (HPC)
  T/C: 166 % of control
endpoint: median tumor weight (est.), dose: 800.0 mg/kg/injection, schedule: Q07DX005 (ip), vehicle: Klucel (hydroxypropylcellulose) (HPC)
  T/C: 65 % of control
endpoint: median tumor weight change, dose: 62.5 mg/kg/injection, schedule: Q01DX001 (ip), vehicle: Klucel (hydroxypropylcellulose) (HPC)
  T/C: 75 % of control
[1]
  T/C: 72 % of control
endpoint: median tumor weight change, dose: 250.0 mg/kg/injection, schedule: Q01DX001 (ip), vehicle: Klucel (hydroxypropylcellulose) (HPC)
  T/C: 76 % of control
endpoint: median tumor weight change, dose: 500.0 mg/kg/injection, schedule: Q01DX001 (ip), vehicle: Klucel (hydroxypropylcellulose) (HPC)
  T/C: 74 % of control
endpoint: median tumor weight change, dose: 1000.0 mg/kg/injection, schedule: Q01DX001 (ip), vehicle: Klucel (hydroxypropylcellulose) (HPC)
  T/C: 60 % of control
endpoint: median tumor weight change, dose: 2000.0 mg/kg/injection, schedule: Q01DX001 (ip), vehicle: Klucel (hydroxypropylcellulose) (HPC)
  T/C: 68 % of control

## O=C1CCC(=O)N1CO
endpoint: median tumor weight change, dose: 125.0 mg/kg/injection, schedule: Q01DX001 (ip), vehicle: saline
  T/C: 97 % of control
endpoint: median tumor weight change, dose: 250.0 mg/kg/injection, schedule: Q01DX001 (ip), vehicle: saline
  T/C: 89 % of control
endpoint: median tumor weight change, dose: 500.0 mg/kg/injection, schedule: Q01DX001 (ip), vehicle: saline
  T/C: 81 % of control
endpoint: median tumor weight change, dose: 1000.0 mg/kg/injection, schedule: Q01DX001 (ip), vehicle: saline
  T/C: 75 % of control

## COc1ccc2[nH]c3c(c2c1)CCNC3CC(C)CCC=C(C)C (stereo unspecified)
endpoint: median tumor weight change, dose: 15.62 mg/kg/injection, schedule: Q01DX001 (ip), vehicle: Klucel (hydroxypropylcellulose) (HPC)
  T/C: 118 % of control
endpoint: median tumor weight change, dose: 25.0 mg/kg/injection, schedule: Q01DX001 (ip), vehicle: Klucel (hydroxypropylcellulose) (HPC)
  T/C: 100 % of control
endpoint: median tumor weight change, dose: 31.25 mg/kg/injection, schedule: Q01DX001 (ip), vehicle: Klucel (hydroxypropylcellulose) (HPC)
  T/C: 197 % of control
endpoint: median tumor weight change, dose: 50.0 mg/kg/injection, schedule: Q01DX001 (ip), vehicle: Klucel (hydroxypropylcellulose) (HPC)
  T/C: 64 % of control
endpoint: median tumor weight change, dose: 100.0 mg/kg/injection, schedule: Q01DX001 (ip), vehicle: Klucel (hydroxypropylcellulose) (HPC)
  T/C: 51 % of control
[1]
  T/C: 159 % of control

## CCCC(=O)Nc1ncnc2c1ncn2C1OC2COP(=O)(O)OC2C1OC(=O)CCC (stereo unspecified)
endpoint: mean tumor weight, dose: 50.0 mg/kg/injection, schedule: Q01DX009 (ip), vehicle: saline
  T/C: 100 % of control
endpoint: mean tumor weight, dose: 100.0 mg/kg/injection, schedule: Q07DX007 (ip), vehicle: saline
  T/C: 117 % of control
endpoint: mean tumor weight, dose: 200.0 mg/kg/injection, schedule: Q01DX009 (ip), vehicle: saline
  T/C: 111 % of control
endpoint: mean tumor weight, dose: 200.0 mg/kg/injection, schedule: Q07DX007 (ip), vehicle: saline
  T/C: 78 % of control
endpoint: mean tumor weight, dose: 400.0 mg/kg/injection, schedule: Q01DX009 (ip), vehicle: saline
  T/C: 55 % of control
endpoint: mean tumor weight, dose: 400.0 mg/kg/injection, schedule: Q07DX007 (ip), vehicle: saline
  T/C: 43 % of control
[2]
  T/C: 75 % of control
endpoint: median tumor weight (est.), dose: 50.0 mg/kg/injection, schedule: Q07DX005 (ip), vehicle: saline
  T/C: 114 % of control
endpoint: median tumor weight (est.), dose: 100.0 mg/kg/injection, schedule: Q07DX005 (ip), vehicle: saline
  T/C: 122 % of control
endpoint: median tumor weight (est.), dose: 200.0 mg/kg/injection, schedule: Q07DX005 (ip), vehicle: saline
  T/C: 77 % of control
endpoint: median tumor weight (est.), dose: 400.0 mg/kg/injection, schedule: Q07DX005 (ip), vehicle: saline
  T/C: 83 % of control
[3]
  T/C: 72 % of control

## O=C1C2CC=CCC2C(=O)N1SC(Cl)(Cl)Cl (stereo unspecified)
endpoint: median tumor weight (est.), dose: 3.12 mg/kg/injection, schedule: Q07DX005 (ip), vehicle: saline with Tween-80
  T/C: 78 % of control
[4]
  T/C: 70 % of control
[5]
  T/C: 89 % of control
[6]
  T/C: 74 % of control

## O=C(O)CSc1nc(-c2ccccc2)c(-c2ccccc2)n1-c1ccccn1
endpoint: median tumor weight (est.), dose: 12.5 mg/kg/injection, schedule: Q07DX005 (ip), vehicle: water
  T/C: 63 % of control and 72 % of control
endpoint: median tumor weight (est.), dose: 25.0 mg/kg/injection, schedule: Q07DX005 (ip), vehicle: water
  T/C: 217 % of control and 78 % of control
endpoint: median tumor weight (est.), dose: 200.0 mg/kg/injection, schedule: Q07DX005 (ip), vehicle: water
  T/C: 64 % of control

## CN1c2c(nc(N)[nH]c2=O)NCC1CCNc1ccc(C(=O)NC(CCC(=O)O)C(=O)O)cc1 (stereo unspecified)
endpoint: mean tumor weight, dose: 25.0 mg/kg/injection, schedule: Q07DX008 (ip), vehicle: sodium bicarbonate
  T/C: 119 % of control
endpoint: mean tumor weight, dose: 50.0 mg/kg/injection, schedule: Q07DX008 (ip), vehicle: sodium bicarbonate
  T/C: 77 % of control
endpoint: mean tumor weight, dose: 100.0 mg/kg/injection, schedule: Q07DX008 (ip), vehicle: sodium bicarbonate
  T/C: 72 % of control
endpoint: median tumor weight (est.), dose: 12.5 mg/kg/injection, schedule: Q07DX005 (ip), vehicle: saline
  T/C: 103 % of control
[2]
  T/C: 95 % of control
[3]
  T/C: 98 % of control

## COc1cc(C2c3cc4c(cc3C(O)C(CO)C2CO)OCO4)cc(OC)c1OC (stereo unspecified)
endpoint: median tumor weight change, dose: 125.0 mg/kg/injection, schedule: Q01DX001 (ip), vehicle: saline with Tween-80
  T/C: 85 % of control
endpoint: median tumor weight change, dose: 250.0 mg/kg/injection, schedule: Q01DX001 (ip), vehicle: saline with Tween-80
  T/C: 102 % of control
endpoint: median tumor weight change, dose: 500.0 mg/kg/injection, schedule: Q01DX001 (ip), vehicle: saline with Tween-80
  T/C: 77 % of control
endpoint: median tumor weight change, dose: 1000.0 mg/kg/injection, schedule: Q01DX001 (ip), vehicle: saline with Tween-80
  T/C: 95 % of control
endpoint: median tumor weight change, dose: 2000.0 mg/kg/injection, schedule: Q01DX001 (ip), vehicle: saline with Tween-80
  T/C: 50 % of control

## CS(=O)(=O)OCCN(CCOS(C)(=O)=O)c1ccc(C=O)cc1
[4]
  T/C: 62 % of control
[5]
  T/C: 62 % of control and 83 % of control
[6]
  T/C: 35 % of control
endpoint: median tumor weight (est.), dose: 200.0 mg/kg/injection, schedule: Q07DX005 (ip), vehicle: saline with Tween-80
  T/C: 85 % of control

## [Na+]
endpoint: median tumor weight change, dose: 75.0 mg/kg/injection, schedule: Q01DX001 (ip), vehicle: water
  T/C: 68 % of control
endpoint: median tumor weight change, dose: 150.0 mg/kg/injection, schedule: Q01DX001 (ip), vehicle: water
  T/C: 93 % of control
endpoint: median tumor weight change, dose: 300.0 mg/kg/injection, schedule: Q01DX001 (ip), vehicle: water
  T/C: 66 % of control
endpoint: median tumor weight change, dose: 600.0 mg/kg/injection, schedule: Q01DX001 (ip), vehicle: water
  T/C: 85 % of control
endpoint: median tumor weight change, dose: 1200.0 mg/kg/injection, schedule: Q01DX001 (ip), vehicle: water
  T/C: 67 % of control

## CC(=O)c1cccc(NC2C(N)C(NC(=O)N(C)C)(C(C)O)C(C)(O)C2(O)COC(=O)c2c(C)cccc2O)c1 (stereo unspecified)
endpoint: median tumor weight (est.), dose: 1.0 mg/kg/injection, schedule: Q07DX005 (ip), vehicle: suspension in saline
  T/C: 162 % of control
endpoint: median tumor weight (est.), dose: 1.8 mg/kg/injection, schedule: Q07DX005 (ip), vehicle: saline with Tween-80
  T/C: 67 % of control and 77 % of control
endpoint: median tumor weight (est.), dose: 2.0 mg/kg/injection, schedule: Q07DX005 (ip), vehicle: suspension in saline
  T/C: 78 % of control
endpoint: median tumor weight (est.), dose: 3.6 mg/kg/injection, schedule: Q07DX005 (ip), vehicle: saline with Tween-80
  T/C: 72 % of control and 93 % of control
endpoint: median tumor weight (est.), dose: 4.0 mg/kg/injection, schedule: Q07DX005 (ip), vehicle: suspension in saline
  T/C: 78 % of control
endpoint: median tumor weight (est.), dose: 7.2 mg/kg/injection, schedule: Q07DX005 (ip), vehicle: saline with Tween-80
  T/C: 55 % of control and 78 % of control
endpoint: median tumor weight (est.), dose: 8.0 mg/kg/injection, schedule: Q07DX005 (ip), vehicle: suspension in saline
  T/C: 119 % of control
endpoint: median tumor weight (est.), dose: 14.4 mg/kg/injection, schedule: Q07DX005 (ip), vehicle: saline with Tween-80
  T/C: 23 % of control and 44 % of control
